Where a name gives a salt, the structure may show the parent alone. Read-outs that look alike come from different tables or passages of the source.
Key:
[1] = target: T1, BCL-XL (Homo sapiens, UniProt Q07817); assay: Protein-protein interaction assay BCL-XL/Bad BH3 peptide (BCL-XL assay), TR-FRET; type: binding; details: His-BCL-XL / Bad BH3-derived peptide
T1 construct: BCL-XL (amino acids 1-212, C-terminal fused to a hexahistidine (6×His) tag); purchased BPS Bioscience (San Diego, Calif., USA); host or cells: E. coli
Experimental: Protein-Protein Interaction Assay: BCL-XL/Bad BH3 Peptide (BCL-XL Assay)
The dose-dependent inhibition by the compounds described in this invention of the interaction between […] and the BH3 domain of Bad (both human) was determined using a steady state binding competition assay with time-resolved fluorescence energy transfer (TR-FRET) readout. For that purpose BCL-2 (amino acids 1-211, C-terminal fused to a hexahistidine (6×His) tag (SEQ ID NO: 3) and a synthetic Bad BH3-derived peptide of sequence Biotin-PEG2-PEG2-NLWAAQRYGRELRR-NIe-SDEFVDSFKK-amide (SEQ ID NO: 2) served as protein receptor and tracer ligand respectively. The recombinant BCL-2 protein (expressed in E. coli) was purchased from BPS Bioscience (San Diego, Calif., USA). The Bad BH3-derived peptide can be obtained from e.g. Biosyntan (Berlin, Germany).
In the assay 11 different concentrations of each compound (0.1 nM, 0.33 nM, 1.1 nM, 3.8 nM, 13 nM, 44 nM, 0.15 μM, 0.51 μM, 1.7 μM, 5.9 μM and 20 μM) were typically measured as duplicates in the same microtiter plate. For that, 100-fold concentrated DMSO solutions were prepared by serial dilutions (1:3.4) of a 2 mM stock solution in a clear, 384-well microtiter plate (Greiner Bio-One, Frickenhausen, Germany). From there, 50 nl were transferred in a dark test plate (Greiner Bio-One. Frickenhausen, Germany). The assay was initiated by addition of 2 μl of a 2,5-fold concentrated Hs-BCL-XL solution (usually for a 1 nM end concentration in 5 μl reaction volume) in aqueous assay buffer [50 mM Tris/HCl pH 7, 100 mM sodium chloride (NaCl), 50 mM potassium fluoride (KF), 0.005% Tween-20, 2 mM DTT, 0.1% bovine gamma globulin (BGG)] to the compounds in the assay plate. This was followed by a 10-minute incubation step at 22° C. for pre-equilibration of the putative complex between His-BCL-XL and the compounds.
The mixture was incubated in the dark for one hour at 22° C. and then overnight at 4° C. The formation of BCL-XL/Bad complexes was determined by measuring the resonance energy transfer of the anti-His- Eu-cryptate antibody to the streptavidin-XL665 present in the reaction. For that purpose, the fluorescence emission at 620 nm and 665 nm after excitation at 330-350 nm was measured in a TR-FRET measuring instrument, for instance a Rubystar or a Pherastar (both from BMG Lab Technologies, Offenburg, Germany) or a Viewlux (Perkin-Elmer). The ratio of the emission at 665 nm and at 622 nm was used as indicator of the amount of BCL-XL/Bad complexes present.
The resulting data (ratio) were normalized, taking 0% inhibition as the mean value of control measurements (usually 32 data points) where all reagents were included. In this case 50 nl DMSO were used instead of compounds. A 100% inhibition corresponded to the mean value of control measurements (usually 32 data points) where all reagents except BCL-XL were included. IC50 values were determined by regression analysis based on a 4 parameter equation (minimum, maximum, IC50, Hill; Y=Max+(Min−Max)/(1+(X/IC50)^Hill) using the Screener Software (Genedata).

[2] = system: SUDHL5; assay: Anti-proliferative effect (CellTiter-Glo, 72 h), SUDHL5; type: cell-based; details: SUDHL5 cells, antiproliferation, 72 h incubation, median, read-out: Antiproli SUDHL5 [M] (median)
Outline: (§1)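 Anti-proliferative activity is derived from ATP-based luminescence (CellTiter-Glo) in cells exposed to compound for 72 h at 37 °C, set against a time zero plate read at seeding.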

[3] = system: SUDHL10; assay: Anti-proliferative effect (CellTiter-Glo, 72 h), SUDHL10; type: cell-based; details: SUDHL10 cells, antiproliferation, 72 h incubation, median, read-out: Antiproli SUDHL10 [M] (median)
Outline: as §1

[4] = system: SUDHL10; assay: Induction of cytotoxicity (CellTiter-Glo, 5 h), SUDHL10
[5] = read-out: Cytotox SUDHL10 [M] (median), SUDHL10 cells, cytotoxicity induction, CellTiter-Glo, 5 h incubation, median
[6] = Homo sapiens, SU-DHL10, 5 h, read-out: Cytotox SUDHL10 [M] (median), SUDHL10 cells, cytotoxicity induction, CellTiter-Glo, 5 h incubation, median

T1 sequence (Q07817 1-212): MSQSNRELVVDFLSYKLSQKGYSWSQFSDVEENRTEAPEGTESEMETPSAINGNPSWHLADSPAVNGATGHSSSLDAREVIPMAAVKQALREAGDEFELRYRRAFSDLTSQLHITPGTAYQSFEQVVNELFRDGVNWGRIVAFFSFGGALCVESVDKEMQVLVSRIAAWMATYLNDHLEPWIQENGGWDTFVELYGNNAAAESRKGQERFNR

IC50 [1] [µM]	IC50 [2] [M]	IC50 [3] [M]	IC50 ([2]; Homo sapiens, SU-DHL-5, 72 h) [M]	IC50 ([3]; Homo sapiens, SU-DHL10, 72 h) [M]	Compound	IC50 [4, 5] [M]	IC50 [4, 6] [M]
> 20	1.58e-06	2.19e-06	–	–	Cn1nc(COc2ccc(N3CCN(C(=O)C4CC4)CC3)cc2)c2c1COCCCCn1c(C(=O)O)c(CCCOc3cccc4ccccc34)c3cccc-2c31 (single isomer, unassigned; enantiomer 1) [Example 1-22, 3-({4-[4-(cyclopropylcarbonyl)piperazin-1-yl]phenoxy}methyl)-1-methyl-7-[3-(naphthalen-1-yloxy)propyl]-1,10,11,12,13,15-hexahydropyrazolo[4′,3′:9,10][1,6]oxazacycloundecino[8,7,6-hi]indole-8-carboxylic Acid (Enantiomer 1)]	2.7e-06	–
> 20	9.89e-07	8.61e-07	–	–	CN1CCCn2c(C(=O)O)c(CCCOc3cccc4ccccc34)c3cccc(c32)-c2c(COc3ccc(N4CCN(S(C)(=O)=O)CC4)cc3)nn(C)c2C1 (single isomer, unassigned; enantiomer 1) [Example 1-46, (+)-7,9-dimethyl-11-({4-[4-(methylsulfonyl)piperazin-1-yl]phenoxy}methyl)-1-[3-(naphthalen-1-yloxy)propyl]-4,5,6,7,8,9-hexahydropyrazolo[3′,4′:7,8][1,5]diazecino[9,10,1-hi]indole-2-carboxylic Acid (Enantiomer 1)]	2.29e-06	–
> 20	–	–	9.58e-06	8.34e-06	CN1CCCn2c(C(=O)O)c(CCCOc3cccc4ccccc34)c3cccc(c32)-c2c(CN3CCOCC3)nn(C)c2C1 (single isomer, unassigned; enantiomer 1) [Example 1-43, (+)-7,9-dimethyl-11-(morpholin-4-ylmethyl)-1-[3-(naphthalen-1-yloxy)propyl]-4,5,6,7,8,9-hexahydropyrazolo[3′,4′:7,8][1,5]diazecino[9,10,1-hi]indole-2-carboxylic Acid (Enantiomer 1)]	1.48e-05	–
> 20	–	–	–	6.99e-06	CC(C)c1c2c(nn1C)CN(C)CCCn1c(C(=O)O)c(CCCOc3cccc4ccccc34)c3cccc-2c31 (racemic) [Example 113, (rac)-7,10-dimethyl-1-[3-(naphthalen-1-yloxy)propyl]-11-(propan-2-yl)-4,5,6,7,8,10-hexahydropyrazolo[3′,4′:7,8][1,5]diazecino[9,10,1-hi]indole-2-carboxylic Acid]	–	7.9e-06
> 20	2.26e-06	–	–	4.11e-06	CCc1c2c(nn1C)COCCCCn1c(C(=O)O)c(CCCOc3cccc4ccccc34)c3ccc(C)c-2c31 (single isomer, unassigned; enantiomer 1) [Example 154, 3-Ethyl-2,4-dimethyl-7-[3-(1-naphthyloxy)propyl]-2,10,11,12,13,15-hexahydropyrazolo[4′,3′:9,10][1,6]oxazacycloundecino[8,7,6-hi]indole-8-carboxylic acid-N-ethylethanamine Salt (Enantiomer 1)]	2.03e-06	–
> 20	–	–	1.04e-05	1.21e-05	COCCn1nc2c(c1CN1CCOCC1)-c1cccc3c(CCCOc4cccc5ccccc45)c(C(=O)O)n(c13)CCCN(C)C2 (single isomer, unassigned; enantiomer 1) [Example 057, 10-(2-methoxyethyl)-7-methyl-11-(morpholin-4-ylmethyl)-1-[3-(naphthalen-1-yloxy)propyl]-4,5,6,7,8,10-hexahydropyrazolo[3′,4′:7,8][1,5]diazecino[9,10,1-hi]indole-2-carboxylic Acid (Enantiomer 1)]	–	2.39e-05
> 20	2.54e-06	3e-06	–	–	Cc1c2c(nn1C)COCCCCn1c(C(=O)O)c(CCCOc3cccc4ccccc34)c3cccc-2c31 (single isomer, unassigned; enantiomer 1) [Example 1-37, (+)-2,3-dimethyl-7-[3-(naphthalen-1-yloxy)propyl]-2,10,11,12,13,15-hexahydropyrazolo[4′,3′:9,10][1,6]oxazacycloundecino[8,7,6-hi]indole-8-carboxylic Acid (Enantiomer 1)]	8.41e-06	–
> 20	6.22e-06	3.08e-06	–	–	COCCn1nc2c(c1C1CC1)-c1cccc3c(CCCOc4cccc5ccccc45)c(C(=O)O)n(c13)CCCCOC2 (single isomer, unassigned; enantiomer 1) [Example 085, 3-Cyclopropyl-2-(2-methoxyethyl)-7-[3-(naphthalen-1-yloxy)propyl]-2,10,11,12,13,15-hexahydropyrazolo[4′,3′:9,10][1,6]oxazacycloundecino[8,7,6-hi]indole-8-carboxylic acid-N-ethylethanamine Salt (Enantiomer 1)]	–	1.97e-05
> 20	2.56e-06	–	–	5.87e-06	CCc1c2c(nn1C)COCCCCn1c(C(=O)O)c(CCCOc3cccc4ccccc34)c3cccc-2c31 (single isomer, unassigned; enantiomer 1) [Example 148, 3-Ethyl-2-methyl-7-[3-(1-naphthyloxy)propyl]-2,10,11,12,13,15-hexahydropyrazolo[4′,3′:9,10][1,6]oxazacycloundecino[8,7,6-hi]indole-8-carboxylic acid-N-ethylethanamine Salt (Enantiomer 1)]	2.4e-06	–
> 20	3.38e-06	–	–	1.03e-05	Cc1c2c(nn1C1CC1)COCCCCn1c(C(=O)O)c(CCCOc3cccc4ccccc34)c3cccc-2c31 (single isomer, unassigned; enantiomer 1) [Example 093, 2-cyclopropyl-3-methyl-7-[3-(naphthalen-1-yloxy)propyl]-2,10,11,12,13,15-hexahydropyrazolo[4′,3′:9,10][1,6]oxazacycloundecino[8,7,6-hi]indole-8-carboxylic acid-N-ethylethanamine Salt (Enantiomer 1)]	7.2e-06	–
> 20	3.62e-06	–	–	–	COCc1nn(C)c2c1-c1cccc3c(CCCOc4cccc5ccccc45)c(C(=O)O)n(c13)CCCN(C)C2 (single isomer, unassigned; enantiomer 2) [Example 1-104, 11-(methoxymethyl)-7,9-dimethyl-1-[3-(1-naphthyloxy)propyl]-4,5,6,7,8,9-hexahydropyrazolo[3′,4′:7,8][1,5]diazecino[9,10,1-hi]indole-2-carboxylic Acid (Enantiomer 2)]	1.78e-05	–
> 20	–	–	9.88e-06	–	Cc1nn(C)c2c1-c1cccc3c(CCCOc4cccc5cc(Cl)ccc45)c(C(=O)O)n(c13)CCCCOC2 (single isomer, unassigned; enantiomer 1) [Example 041, 7-{3-[(6-chloronaphthalen-1-yl)oxy]propyl}-1,3-dimethyl-1,10,11,12,13,15-hexahydropyrazolo[4′,3′:9,10][1,6]oxazacycloundecino[8,7,6-hi]indole-8-carboxylic acid-N-ethylethanamine Salt (Enantiomer 1)]	1.46e-05	–

From US10981932B2, “Macrocyclic indole derivatives” (Bayer Aktiengesellschaft, priority 2016, dated 2021)
